# In paper PMC8760635 (Analytical chemistry, 2021):
# Like-named read-outs stand apart in the source and are kept apart here.
# Target: recombinant His6-tagged human FABP5 (Homo sapiens, UniProt Q01469)
# Test: Isothermal titration calorimetry
# Assay type: binding
# recombinant His6-tagged human FABP5, sequence (Q01469 whole entry): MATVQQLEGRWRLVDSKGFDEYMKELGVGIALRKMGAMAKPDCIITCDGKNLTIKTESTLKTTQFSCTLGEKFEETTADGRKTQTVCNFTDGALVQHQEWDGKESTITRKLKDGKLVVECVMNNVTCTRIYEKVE
"Kd (read-out: dissociation constant (Kd), ITC, 25 °C, 100 mM NaCl, 30 mM Tris (pH 7.5), 5% glycerol, one-binding-site model, ± error of the fit) [µM]",SMILES,Kd [µM]
167 ± 34,"O=P(O)(O)C(F)(F)C(F)(F)C(F)(F)C(F)(F)C(F)(F)C(F)(F)C(F)(F)C(F)(F)F [PFOPA, perfluorooctanephosphonic acid]",
,"O=C(O)C(F)(F)C(F)(F)C(F)(F)C(F)(F)C(F)(F)C(F)(F)C(F)(F)F [PFOA, perfluorooctanoic acid]",77 ± 17
